This is an account of results in US8686150B2 (Sanofi, priority 2011, dated 2014).

As a reminder, the inhibition is the relative decrease from the control value, in per cent.

The assay deals with T1, human full-length recombinant PKC βII (Homo sapiens, UniProt P05771).
T1 construct: Active human full-length recombinant PKC βII; purchased Invitrogen GmbH, Darmstadt, Germany
T1 sequence (P05771 1-673 isoform P05771-2): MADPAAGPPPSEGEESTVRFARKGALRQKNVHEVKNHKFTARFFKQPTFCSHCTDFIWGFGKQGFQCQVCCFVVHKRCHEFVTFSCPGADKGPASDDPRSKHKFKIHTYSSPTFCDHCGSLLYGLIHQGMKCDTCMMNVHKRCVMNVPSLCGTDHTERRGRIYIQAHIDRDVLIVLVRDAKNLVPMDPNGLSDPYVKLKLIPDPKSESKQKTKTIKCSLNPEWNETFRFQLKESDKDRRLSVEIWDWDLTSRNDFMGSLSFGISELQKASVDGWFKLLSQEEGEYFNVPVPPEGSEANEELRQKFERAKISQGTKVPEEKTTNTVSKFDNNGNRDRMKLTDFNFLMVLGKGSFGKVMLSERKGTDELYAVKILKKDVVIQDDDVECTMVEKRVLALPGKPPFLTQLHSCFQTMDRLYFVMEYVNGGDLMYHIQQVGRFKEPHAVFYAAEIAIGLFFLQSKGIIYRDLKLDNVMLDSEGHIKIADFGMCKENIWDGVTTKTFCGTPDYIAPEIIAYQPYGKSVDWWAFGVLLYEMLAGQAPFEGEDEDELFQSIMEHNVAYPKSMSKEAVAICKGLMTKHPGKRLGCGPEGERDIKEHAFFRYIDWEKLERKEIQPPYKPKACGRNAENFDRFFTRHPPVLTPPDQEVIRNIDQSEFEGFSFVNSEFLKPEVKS
In words: Determination of PKC βII inhibition (Caliper mobility-shift kinase assay, Fluorescein-RFARKGSLRQKNV peptide substrate). It is filed as biochemical. The note with it: example compounds at a final concentration of 1.14 μM (±0.15 μM). As to the method: Determination of PKC βII Inhibition
PKC βII Inhibition was Determined According to the Following Protocol:
Active human full-length recombinant PKC βII and the peptide substrate, Fluorescein-RFARKGSLRQKNV, were purchased from Invitrogen GmbH, Darmstadt, Germany. Adenosine-5′-triphosphate (ATP), bovine serum albumine (BSA), dimethylsulphoxide (DMSO), 4-(2-hydroxyethyl)piperazine-1-ethanesulfonic acid (Hepes), Triton X-100, 1,2-Dioleoyl-sn-glycerol (DAG), L-G-Phosphatidyl-L-serine (PS), calcium chloride (CaCl2), and Pluronic F-68 were purchased from Sigma-Aldrich, Munich, Germany. Magnesium chloride, 1 M sodium hydroxide solution, 1M hydrochloric acid solution and EDTA were obtained from Merck Biosciences, Darmstadt, Germany.
Test compounds were diluted to three times the test concentration in buffer 1 (30 mM Hepes-NaOH, pH 7.4, 0.01% Pluronic F-68 and 3% (v/v) DMSO). The PKC enzyme was diluted to a concentration of 30 ng/ml in buffer 2 (30 mM Hepes-NaOH, pH 7.4, 15 mM MgCl2, 150 μM CaCl2, 150 μg/ml PS, 60 μg/ml DAG, and 0.045% (w/v) Triton X-100). The peptide substrate and ATP were diluted to concentrations of 3 μM and 120 μM, respectively, in buffer 2. Two μl of the compound solution were mixed with 2 μl of the diluted enzyme in a 384-well small volume microtiter plate (Greiner, Bio-One, Frickenhausen, Germany), and the kinase reaction was initiated by addition of 2 μl of the solution containing peptide substrate and ATP. After 60 min incubation at 32° C., the reaction was stopped by addition of 20 μl of a solution containing 130 mM Hepes-NaOH, pH 7.4. 0.0195% (v/v) Brij-35, 6.5 mM EDTA. 0.13% chip coating reagent 3 (Caliper Lifescience Inc, Hopkinton, Mass.) and 6.5% (v/v) DMSO. Phosphorylation of the substrate peptide was then detected on a Caliper 3000 instrument essentially as described by Pommereau et al (J. Biomol. Screening 2004, 9(5), 409-416). Separation conditions were as follows: Pressure −0.8 psi, upstream voltage −3000 V, downstream voltage −800 V. Positive controls (buffer 1 instead of compound) and negative controls (buffer 1 instead of compound and buffer 2 instead of kinase solution) were run in parallel on each plate. Fractional turnover (R) was determined as the height of the peak of the phosphorylated peptide product divided by the sum of the unphosphorylated substrate and phosphorylated product peak heights. Percent-inhibition values for the test compounds were determined using the formula % Inhibition=100*(1−(Rcompound−Rnegative control)/(Rpositive control−Rnegative control).
In the following table % inhibition values observed with example compounds at a final concentration of 1.14 μM (±0.15 μM) are listed: […]
Regarding `Cc1cc(O)ccc1-c1cc(C(=O)N2CCNCC2c2ccc(F)cc2F)c2c(C)n[nH]c2n1` (stereo not shown) [Example 152, [2-(2,4-Difluoro-phenyl)-piperazin-1-yl]-[6-(4-hydroxy-2-methyl-phenyl)-3-methyl-1H-pyrazolo[3,4-b]pyridin-4-yl]-methanone], the inhibition at 1.14 µM is 94%.

Turning to `Cc1n[nH]c2nc(-c3ccc(O)cc3F)cc(C(=O)N3CCNC(C4CC4)C3)c12` (stereo not shown) [Example 423, (3-Cyclopropyl-piperazin-1-yl)-[6-(2-fluoro-4-hydroxy-phenyl)-3-methyl-1H-pyrazolo[3,4-b]pyridin-4-yl]-methanone], the inhibition at 1.14 µM is 84%.

Turning to `Cc1n[nH]c2nc(-c3ccc(O)cc3F)cc(C(=O)NC3(c4ccccc4)CCNCC3)c12` [Example 440, 6-(2-Fluoro-4-hydroxy-phenyl)-3-methyl-1H-pyrazolo[3,4-b]pyridine-4-carboxylic acid (4-phenyl-piperidin-4-yl)-amide], the inhibition at 1.14 µM was 90%.

As for `Cc1n[nH]c2nc(-c3ccc(O)cc3)cc(C(=O)N3CCNC(C(F)(F)F)C3)c12` (stereo not shown) [Example 196, [6-(4-Hydroxy-phenyl)-3-methyl-1H-pyrazolo[3,4-b]pyridin-4-yl]-(3-trifluoromethyl-piperazin-1-yl)-methanone], the inhibition at 1.14 µM stood at 75%.

For the compound `Cc1n[nH]c2nc(-c3ccc(O)cc3)cc(C(=O)N3CCNCC34CCCC4)c12` [Example 108, (6,9-Diaza-spiro[4.5]dec-6-yl)-[6-(4-hydroxy-phenyl)-3-methyl-1H-pyrazolo[3,4-b]pyridin-4-yl]-methanone], the inhibition at 1.14 µM stood at 96%.

Regarding `Cc1n[nH]c2nc(-c3ccc(O)c(F)c3)cc(C(=O)N3CCC4(CCNC4)C3)c12` (stereo not shown) [Example 340, (2,7-Diaza-spiro[4.4]non-2-yl)-[6-(3-fluoro-4-hydroxy-phenyl)-3-methyl-1H-pyrazolo[3,4-b]pyridin-4-yl]-methanone], the inhibition at 1.14 µM was determined as 67%.

Take `O=C(c1cc(-c2ccc(O)cc2)nc2[nH]nc(C(F)(F)F)c12)N1CCC2(CCNC2)CC1` [Example 410, (2,8-Diaza-spiro[4.5]dec-8-yl)-[6-(4-hydroxy-phenyl)-3-trifluoromethyl-1H-pyrazolo[3,4-b]pyridin-4-yl]-methanone]: the inhibition at 1.14 µM was 20%.

Turning to `O=C(c1cc(-c2ccc(O)cc2)nc2[nH]nc(C3CC3)c12)N1CCNC[C@H]1c1ccccc1` [Example 158, [3-Cyclopropyl-6-(4-hydroxy-phenyl)-1H-pyrazolo[3,4-b]pyridin-4-yl]-((R)-2-phenyl-piperazin-1-yl)-methanone], the inhibition at 1.14 µM came to 78%.

Take `Cc1n[nH]c2nc(-c3ccc(O)cc3)cc(C(=O)N3CCCN(C)CC3)c12` [Example 269, [6-(4-Hydroxy-phenyl)-3-methyl-1H-pyrazolo[3,4-b]pyridin-4-yl]-(4-methyl-[1,4]diazepan-1-yl)-methanone]: the inhibition at 1.14 µM worked out at 87%.

For `Cc1n[nH]c2nc(-c3ccc(O)cc3)cc(C(=O)N3CCNCC3c3cccc(F)c3)c12` (stereo not shown) [Example 91, [2-(3-Fluoro-phenyl)-piperazin-1-yl]-[6-(4-hydroxy-phenyl)-3-methyl-1H-pyrazolo[3,4-b]pyridin-4-yl]-methanone], the inhibition at 1.14 µM came out at 93%.

For `Cc1n[nH]c2nc(-c3ccc(O)c(F)c3)cc(C(=O)N3CCCC4CNCCC43)c12` (stereo not shown) [Example 324, [6-(3-Fluoro-4-hydroxy-phenyl)-3-methyl-1H-pyrazolo[3,4-b]pyridin-4-yl]-(octahydro-[1,6]naphthyridin-1-yl)-methanone], the inhibition at 1.14 µM was 69%.

Regarding `O=C(c1cc(-c2ccc(O)cc2)nc2[nH]nc(C(F)(F)F)c12)N1CCC2CNCC21` (stereo not shown) [Example 408, (Hexahydro-pyrrolo[3,4-b]pyrrol-1-yl)-[6-(4-hydroxy-phenyl)-3-trifluoromethyl-1H-pyrazolo[3,4-b]pyridin-4-yl]-methanone], the inhibition at 1.14 µM amounted to 21%.

On to `CCc1n[nH]c2nc(-c3ccc(O)cc3)cc(C(=O)N3CCNC(C)C3)c12` (stereo not shown) [Example 165, [3-Ethyl-6-(4-hydroxy-phenyl)-1H-pyrazolo[3,4-b]pyridin-4-yl]-(3-methyl-piperazin-1-yl)-methanone], for which the inhibition at 1.14 µM came out at 92%.

As for `Cc1n[nH]c2nc(-c3ccc(O)cc3)cc(C(=O)N[C@@H]3[C@H]4CC[C@H](C4)[C@H]3CN)c12` [Example 228, 6-(4-Hydroxy-phenyl)-3-methyl-1H-pyrazolo[3,4-b]pyridine-4-carboxylic acid (3-aminomethyl-bicyclo[2.2.1]hept-2-yl)-amide], the inhibition at 1.14 µM is 91%.

As to `Cc1n[nH]c2nc(-c3ccc(O)cc3)cc(C(=O)N3CCNCC3c3ccccc3F)c12` (stereo not shown) [Example 95, [2-(2-Fluoro-phenyl)-piperazin-1-yl]-[6-(4-hydroxy-phenyl)-3-methyl-1H-pyrazolo[3,4-b]pyridin-4-yl]-methanone], the inhibition at 1.14 µM was 99%.

Turning to `CCC1(CC)CNCCN1C(=O)c1cc(-c2ccc(O)cc2F)nc2[nH]nc(C)c12` [Example 436, (2,2-Diethyl-piperazin-1-yl)-[6-(2-fluoro-4-hydroxy-phenyl)-3-methyl-1H-pyrazolo[3,4-b]pyridin-4-yl]-methanone], the inhibition at 1.14 µM worked out at 100%.

`Cc1n[nH]c2nc(-c3ccc(O)cc3)cc(C(=O)NC3CCN(C4CCCCC4)CC3)c12` [Example 279, 6-(4-Hydroxy-phenyl)-3-methyl-1H-pyrazolo[3,4-b]pyridine-4-carboxylic acid (1-cyclohexyl-piperidin-4-yl)-amide]: the inhibition at 1.14 µM amounted to 78%.

With `CCc1n[nH]c2nc(-c3ccc(O)cc3)cc(C(=O)NC3CC4CCC(C3)N4C)c12` (stereo not shown) [Example 163, 3-Ethyl-6-(4-hydroxy-phenyl)-1H-pyrazolo[3,4-b]pyridine-4-carboxylic acid (8-methyl-8-aza-bicyclo[3.2.1]oct-3-yl)-amide], the inhibition at 1.14 µM was found to be 57%.

On to `Cc1n[nH]c2nc(-c3ccc(O)cc3)cc(C(=O)N3CCNCC3c3cccnc3)c12` (stereo not shown) [Example 374, [6-(4-Hydroxy-phenyl)-3-methyl-1H-pyrazolo[3,4-b]pyridin-4-yl]-(2-pyridin-3-yl-piperazin-1-yl)-methanone], for which the inhibition at 1.14 µM amounted to 99%.

`CNC1CCN(C(=O)c2cc(-c3ccc(O)cc3)nc3[nH]nc(C)c23)CC1` [Example 109, [6-(4-Hydroxy-phenyl)-3-methyl-1H-pyrazolo[3,4-b]pyridin-4-yl]-(4-methylamino-piperidin-1-yl)-methanone]: the inhibition at 1.14 µM worked out at 88%.

Take `Cc1n[nH]c2nc(-c3ccc(O)cc3F)cc(C(=O)N3[C@@H]4CC[C@H]3CNC4)c12` [Example 417, 3,8-Diaza-bicyclo[3.2.1]oct-8-yl-[6-(2-fluoro-4-hydroxy-phenyl)-3-methyl-1H-pyrazolo[3,4-b]pyridin-4-yl]-methanone]: the inhibition at 1.14 µM worked out at 78%.

For the compound `Cc1n[nH]c2nc(-c3ccc(O)cc3)cc(C(=O)NC3CCN(CCc4ccccc4)CC3)c12` [Example 382, 6-(4-Hydroxy-phenyl)-3-methyl-1H-pyrazolo[3,4-b]pyridine-4-carboxylic acid (1-phenethyl-piperidin-4-yl)-amide], the inhibition at 1.14 µM was 67%.

For `Cc1ccc(C(=O)N2CCN(C(=O)c3cc(-c4ccc(O)cc4)nc4[nH]nc(C)c34)CC2)cc1` [Example 267, [6-(4-Hydroxy-phenyl)-3-methyl-1H-pyrazolo[3,4-b]pyridin-4-yl]-[4-(4-methyl-benzoyl)-piperazin-1-yl]-methanone], the inhibition at 1.14 µM was 32%.

`Cc1n[nH]c2nc(-c3ccc(O)cc3F)cc(C(=O)N3CCNCC34CCC4)c12` [Example 439, (5,8-Diaza-spiro[3.5]non-5-yl)-[6-(2-fluoro-4-hydroxy-phenyl)-3-methyl-1H-pyrazolo[3,4-b]pyridin-4-yl]-methanone]: the inhibition at 1.14 µM stood at 99%.

As to `Cc1n[nH]c2nc(-c3ccc(O)cc3)cc(C(=O)N3CC(C(C)(C)N)C3)c12` [Example 33, [3-(1-Amino-1-methyl-ethyl)-azetidin-1-yl]-[6-(4-hydroxy-phenyl)-3-methyl-1H-pyrazolo[3,4-b]pyridin-4-yl]-methanone], the inhibition at 1.14 µM worked out at 91%.
